Values joined by “and” are separate entries in the source; they are usually repeats but may differ in a detail not shown here. Equal entries are not always repeated.
biological target: JNK1 (Homo sapiens, UniProt P45983); experiment: DELFIA kinase assay, JNK1; assay type: biochemical; conditions: DELFIA assay, 2 nM JNK1, 7 uM ATP, 10 min pre-incubation
Description: Assay DELFIA (Dissociation Enhanced Lanthanide Fluorescence Immuno-Assay) Assay:
Before initiation of kinase reactions, compounds were pre-incubated with the enzyme for 10 minutes. Pre-incubation reactions contained 50 mM HEPES pH 7.3, 10 mM MgCl2, 1 mM DTT, 75 mM NaCl, 1 mM EDTA, 1 mM EGTA, 0.01% CHAPS, 2 nM JNK1, 6 ug/mL biotinylated GST-ATF2, 0.1 mg/ml BSA, 5% DMSO and 0-100 μM compound in a total volume of 40 μL. After a 10 minute room temperature pre-incubation, 10 μL of 35 μM ATP was added to start the reaction (final concentration of ATP=7 uM). Reactions were incubated at room temperature for 30 minutes. A small aliquot (10 uL) was taken and quenched by adding into 190 uL of DELFIA Assay buffer containing 100 mM EDTA. The amount of phosphate transferred to biotinylated GST-ATF2 was measured using the Dissociation Enhanced Lanthanide Fluorescence Immuno-assay (DELFIA) from Perkin Elmer according to manufacturers protocol. Briefly, biotinylated GST-ATF2 was captured on streptavidin coated plates for 1 hour, washed twice, then incubated for 1 hour with a 1:1000 dilution of rabbit-anti-phospho-ATF2 antibody and a 1:3500 dilution of Europium-labeled anti-rabbit secondary antibody. Free antibody was removed with six washes, Europium was dissociated from the antibody, and Europium fluorescence was measured using an excitation wavelength of 340 nm and an emission wavelength of 615 nm. JNK2 and JNK3 kinase reactions were carried out similarly, with the exception that the final concentration of ATP was 4 uM and 2 uM, respectively.

Sequence of JNK1 (P45983 whole entry, species assumed): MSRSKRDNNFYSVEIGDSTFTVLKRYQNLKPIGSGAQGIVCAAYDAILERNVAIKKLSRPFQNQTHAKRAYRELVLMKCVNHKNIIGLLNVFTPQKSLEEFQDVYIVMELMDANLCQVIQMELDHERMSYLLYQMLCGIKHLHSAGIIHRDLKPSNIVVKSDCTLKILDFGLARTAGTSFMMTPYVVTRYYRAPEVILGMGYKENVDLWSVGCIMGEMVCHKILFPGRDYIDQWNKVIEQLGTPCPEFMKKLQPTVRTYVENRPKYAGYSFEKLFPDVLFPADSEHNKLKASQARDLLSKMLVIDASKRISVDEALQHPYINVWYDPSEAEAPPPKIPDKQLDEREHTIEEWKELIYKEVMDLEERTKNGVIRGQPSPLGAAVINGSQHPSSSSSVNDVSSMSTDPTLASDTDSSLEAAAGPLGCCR

SMILES | IC50
CC(C)NC(=O)c1cccc(C(=O)NCc2cnn(-c3ccc(S(=O)(=O)N(C)C)c(Cl)c3)c2)n1 [Compound 246] | 4 nM
CC(C)NC(=O)c1cccc(C(=O)NCc2cnn(-c3ccc(S(=O)(=O)N4CCNCC4)c(Cl)c3)c2)n1 [Compound 248] | 7 nM

same assay, conditions: DELFIA assay, 2 nM JNK1, 7 uM ATP, 10 min pre-incubation; second table; read-out: JNK 1 IC50

SMILES | IC50
CC(C)NC(=O)c1cccc(C(=O)NCc2cnn(-c3ccc(S(=O)(=O)N(C)C)c(Cl)c3)c2)n1 [Compound 246] | 4 nM
CC(C)NC(=O)c1cccc(C(=O)NCc2cnn(-c3ccc(S(=O)(=O)N4CCNCC4)c(Cl)c3)c2)n1 [Compound 248] | 7 nM

same assay, conditions: DELFIA, biotinylated GST-ATF2 substrate, 10 minute pre-incubation, final ATP 7 uM

SMILES | IC50
CC(C)NC(=O)c1cccc(C(=O)NCc2cnn(-c3cccc(S(C)(=O)=O)c3)c2)n1 [Compound 136] | 4 to 97 nM
Nc1nc2ccc(CNC(=O)c3cccc(C(=O)N[C@H](CO)Cc4ccccc4)n3)cc2s1 [Compound 22] | > 1000 nM
CC(C)NC(=O)c1cccc(C(=O)NCc2ccc(-c3cccc(C#N)c3)nc2)n1 [Compound 178] | 102 to 959 nM
CC(C)NC(=O)c1cccc(C(=O)NCC2CCN(C(=O)OC(C)(C)C)C2)n1 (stereo not drawn) [Compound 95] | > 1000 nM and 1030 to 10000 nM
Cc1nc2cc(CNC(=O)c3cccc(C(=O)NC(C)C)n3)ccc2[nH]1 [Compound 108] | 102 to 959 nM
CS(=O)(=O)c1ccc(-n2cc(CNC(=O)c3cccc(C(=O)NC4CCCCC4)n3)cn2)cc1 [Compound 77] | 4 to 97 nM
CS(=O)(=O)c1ccc(CNC(=O)c2cccc(C(=O)NC3CCN(S(C)(=O)=O)CC3)n2)cc1 [Compound 58] | > 1000 nM
C[C@H](CO)NC(=O)c1cccc(C(=O)NCc2ccc3nc(N)sc3c2)n1 [Compound 49] | 102 to 959 nM
CCOC(=O)N1CCC(NC(=O)c2cccc(C(=O)NCc3ccc4c(c3)OCO4)n2)CC1 [Compound 44] | 102 to 959 nM
Cc1cnn(-c2cccc(C(=O)NCc3ccc(S(C)(=O)=O)cc3)n2)c1 [Compound 323] | 1030 to 10000 nM and > 1000 nM
Cc1nc2cc(-n3cc(CNC(=O)c4cccc(C(=O)NC(C)C)n4)cn3)ccc2[nH]1 [Compound 146] | 4 to 97 nM
CC(C)NC(=O)c1cccc(C(=O)NCc2cccnc2)n1 [Compound 93] | 102 to 959 nM
CN1CCC(NC(=O)c2cccc(C(=O)NCc3ccc4nc(N)sc4c3)n2)CC1 [Compound 29] | > 1000 nM
CC(C)[C@H](CO)NC(=O)c1cccc(C(=O)NCc2ccc3nc(N)sc3c2)n1 [Compound 50] | 102 to 959 nM
Nc1nc2ccc(CNC(=O)c3cccc(C(=O)N4CCC(O)CC4)n3)cc2s1 [Compound 35] | > 1000 nM
CCOC(=O)N1CCC(NC(=O)c2cccc(NCCc3ccncc3)n2)CC1 [Compound 393] | > 1000 nM
CC(C)C[C@@H](CO)NC(=O)c1cccc(C(=O)NCc2ccc3nc(N)sc3c2)n1 [Compound 21] | 102 to 959 nM
Cc1ccn(-c2cccc(C(=O)NCc3ccc(S(C)(=O)=O)cc3)n2)n1 [Compound 324] | 1030 to 10000 nM and > 1000 nM
CC(C)NC(=O)c1cccc(C(=O)NCc2cnn(-c3ccc(S(=O)(=O)N(C)C)c(Cl)c3)c2)n1 [Compound 246] | 4 to 19 nM and 4 nM and 4 to 97 nM
CC(C)NC(=O)c1cccc(C(=O)NCc2ccc3nc(NCCN4CCOCC4)sc3c2)n1 [Compound 202] | 4 to 97 nM
Cc1ccc(-n2cc(CNC(=O)c3cccc(C(=O)NC(C)C)n3)cn2)cc1 [Compound 130] | 4 to 19 nM and 4 to 97 nM
C[C@H](NC(=O)c1cccc(C(=O)NCc2ccc3nc(N)sc3c2)n1)C(=O)O [Compound 66] | > 1000 nM and 1030 to 10000 nM
Nc1nc2ccc(CNC(=O)c3cccc(C(=O)NC[C@H](O)c4ccccc4)n3)cc2s1 [Compound 25] | 102 to 959 nM
CC(C)NC(=O)c1cccc(C(=O)Nc2cccnc2)n1 [Compound 90] | > 1000 nM and 1030 to 10000 nM

SMILES | IC50
CCOC(=O)N1CCC(NC(=O)c2cccc(Nc3ccc(N4CCOCC4)cc3)n2)CC1 [Compound 390] | > 1000 nM
CC(C)NC(=O)c1cccc(C(=O)NCc2cccc(Oc3ccccn3)c2)n1 [Compound 126] | 102 to 959 nM
CC(C)NC(=O)c1cccc(C(=O)NCC2CCN(C(=O)OC(C)(C)C)CC2)n1 [Compound 94] | 102 to 959 nM
CS(=O)(=O)c1ccc(-n2cc(CNC(=O)c3cccc(-n4cc(-c5cccc(F)c5)cn4)n3)cn2)cc1 [Compound 295] | 102 to 959 nM
CS(=O)(=O)c1ccc(CNC(=O)c2cccc(C(=O)NC3CCN(c4ccncc4)CC3)n2)cc1 [Compound 275] | 1030 to 10000 nM and > 1000 nM
Cc1cccc(-n2cc(CNC(=O)c3nc(C(=O)NC(C)C)ccc3F)cn2)c1 [Compound 429] | 102 to 959 nM
CC(=O)NCCNC(=O)c1cccc(C(=O)NCc2ccc3nc(N)sc3c2)n1 [Compound 16] | > 1000 nM
CC(C)NC(=O)c1cccc(C(=O)NCc2cnn(-c3ccc4nc(C(F)(F)F)n(C)c4c3)c2)n1 [Compound 234] | 4 to 19 nM and 4 to 97 nM
Nc1nc2ccc(CNC(=O)c3cccc(NCc4ccccc4)n3)cc2s1 [Compound 263] | > 1000 nM
CC(C)NC(=O)c1cccc(C(=O)NCc2cnn(-c3cccnc3)c2)n1 [Compound 141] | 4 to 97 nM
Nc1nc2ccc(CNC(=O)c3cccc(C(=O)N4CCCCC4CO)n3)cc2s1 (stereo not drawn) [Compound 36] | > 1000 nM
CCOC(=O)c1cnn(-c2cccc(C(=O)NCc3ccc(S(C)(=O)=O)cc3)n2)c1 [Compound 319] | > 1000 nM and 1030 to 10000 nM
CC(C)NC(=O)c1cccc(C(=O)N[C@H](C)c2ccc(O)cc2)n1 [Compound 123] | 102 to 959 nM
CC(C)NC(=O)c1cccc(C(=O)NCc2cnn(-c3ccc(F)c(Cl)c3)c2)n1 [Compound 131] | 4 to 97 nM
CC(C)NC(=O)c1cccc(C(=O)NCc2ccc3sc(NC(N)=O)nc3c2)n1 [Compound 87] | 4 to 97 nM
Nc1nc2ccc(CNC(=O)c3cccc(CO)n3)cc2s1 [Compound 63] | 1030 to 10000 nM and > 1000 nM
CC(C)NC(=O)c1cccc(C(=O)NCc2cnn(C(C)C)c2)n1 [Compound 117] | 102 to 959 nM
Cc1nn(C)c(C)c1CNC(=O)c1cccc(C(=O)NC(C)C)n1 [Compound 102] | 1030 to 10000 nM and > 1000 nM
CC(C)NC(=O)c1cccc(C(=O)NCc2ccc(-c3cccc(C#N)c3)cc2)n1 [Compound 194] | 102 to 959 nM
C[C@@H](CO)NC(=O)c1cc(-c2cccs2)cc(C(=O)NCc2ccc(S(C)(=O)=O)cc2)n1 [Compound 416] | > 1000 nM and 1030 to 10000 nM
CC(C)C(=O)N(C(=O)C(C)C)c1cccc(C(=O)NCc2cnn(-c3cccc(C(F)(F)F)c3)c2)n1 [Compound 364] | > 1000 nM and 1030 to 10000 nM
CC(=O)N1CCC(NC(=O)c2cccc(C(=O)NCc3ccc4nc(N)sc4c3)n2)CC1 [Compound 28] | 102 to 959 nM
CCOC(=O)N1CCC(NC(=O)c2cc(-c3cccs3)cc(C(=O)NCc3ccc(S(C)(=O)=O)cc3)n2)CC1 [Compound 414] | > 1000 nM and 1030 to 10000 nM
NC(=O)Nc1cccc(C(=O)NCc2cnn(-c3cccc(C(F)(F)F)c3)c2)n1 [Compound 356] | 102 to 959 nM

SMILES | IC50
CC(C)NC(=O)c1cccc(C(=O)NCc2ccc(-c3ccc(S(C)(=O)=O)cc3)cc2)n1 [Compound 196] | 102 to 959 nM
CC(C)NC(=O)c1cccc(C(=O)NCC2CCN(c3cccc(C#N)c3)CC2)n1 [Compound 419] | > 1000 nM and 1030 to 10000 nM
CCC(C)NC(=O)c1cccc(C(=O)NCc2ccc3nc(N)sc3c2)n1 (stereo not drawn) [Compound 7] | 4 to 97 nM
Nc1nc2ccc(CNC(=O)c3cccc(C(=O)NCCN4CCOCC4)n3)cc2s1 [Compound 26] | > 1000 nM
CC(C)NC(=O)c1cccc(C(=O)NCc2cccc(Cl)c2)n1 [Compound 96] | 102 to 959 nM
CC(C)NC(=O)c1cccc(C(=O)NCc2cncc(Br)c2)n1 [Compound 254] | 102 to 959 nM
Cc1cc(CNC(=O)c2cccc(C(=O)NC(C)C)n2)nn1C [Compound 103] | 1030 to 10000 nM and > 1000 nM
CCNC(=O)c1cccc(C(=O)NCc2ccc3nc(N)sc3c2)n1 [Compound 14] | > 1000 nM
COc1ccc(F)cc1-c1cccc(C(=O)NCc2ccc(S(C)(=O)=O)cc2)n1 [Compound 329] | 102 to 959 nM
CC(C)NC(=O)c1cccc(C(=O)NCc2ccc3nc(NC(=O)N(C)C)sc3c2)n1 [Compound 207] | 4 to 97 nM
Nc1nc2ccc(CNC(=O)c3cccc(C(=O)NCCO)n3)cc2s1 [Compound 15] | > 1000 nM
CC(C)CCNC(=O)c1cccc(C(=O)NCc2ccc3nc(N)sc3c2)n1 [Compound 71] | 102 to 959 nM
CC(C)NC(=O)c1cccc(C(=O)NCc2cnn(-c3ccc4nc(-c5cccnc5)n(C)c4c3)c2)n1 [Compound 238] | 4 to 97 nM and 4 to 19 nM
CC(C)NC(=O)c1cccc(C(=O)NCc2cccc(-c3ccc(S(C)(=O)=O)cc3)c2)n1 [Compound 192] | 4 to 97 nM
CC(C)NC(=O)c1cccc(C(=O)NCc2cnn(-c3nccs3)c2)n1 [Compound 163] | 102 to 959 nM
CC(C)NC(=O)c1cccc(C(=O)NCc2cnn(-c3ccncc3)c2)n1 [Compound 159] | 102 to 959 nM
CC(C)NC(=O)c1cccc(C(=O)NCc2cnn(-c3ccc(S(=O)(=O)N4CCNCC4)c(Cl)c3)c2)n1 [Compound 248] | 4 to 19 nM and 4 to 97 nM
CC(C)NC(=O)c1cccc(C(=O)NCc2nccs2)n1 [Compound 104] | 1030 to 10000 nM and > 1000 nM
CC(CO)NC(=O)c1cccc(C(=O)NCc2ccc3nc(N)sc3c2)n1 (stereo not drawn) [Compound 18] | 102 to 959 nM
CCOC(=O)N1CCC(NC(=O)c2cccc(NC(=O)Cc3ccc(S(C)(=O)=O)cc3)n2)CC1 [Compound 402] | > 1000 nM and 1030 to 10000 nM
N#Cc1ccccc1N1CCC(NC(=O)c2cccc(C(=O)NCc3ccc4nc(N)sc4c3)n2)CC1 [Compound 10] | 4 to 97 nM
CC(C)NC(=O)c1cccc(C(=O)NC(C)c2ccc(S(C)(=O)=O)cc2)n1 (stereo not drawn) [Compound 121] | 102 to 959 nM
Nc1nc2ccc(CNC(=O)c3cccc(C(=O)N4CCC(c5cccc(O)c5)C(O)C4)n3)cc2s1 (stereo not drawn) [Compound 31] | > 1000 nM

Reference: patent publication US8278337B2, “Substituted pyridines that are JNK inhibitors” (Merck Sharp & Dohme, priority 2006, dated 2012)
